One assay addresses Thymidine phosphorylase (Escherichia coli K-12, UniProt P07650). Put plainly: Inhibition of Escherichia coli thymidine phosphorylase.
Assay [1] has as its target Thymidine phosphorylase (Escherichia coli K-12) (UniProt P07650). Description: Inhibition of Escherichia coli thymidine phosphorylase by spectrophotometry.

Molecules are shown by their SMILES. Activity calls are given as the source filed them. No cut-off for these calls is given here.

Chain of Thymidine phosphorylase (P07650 whole entry): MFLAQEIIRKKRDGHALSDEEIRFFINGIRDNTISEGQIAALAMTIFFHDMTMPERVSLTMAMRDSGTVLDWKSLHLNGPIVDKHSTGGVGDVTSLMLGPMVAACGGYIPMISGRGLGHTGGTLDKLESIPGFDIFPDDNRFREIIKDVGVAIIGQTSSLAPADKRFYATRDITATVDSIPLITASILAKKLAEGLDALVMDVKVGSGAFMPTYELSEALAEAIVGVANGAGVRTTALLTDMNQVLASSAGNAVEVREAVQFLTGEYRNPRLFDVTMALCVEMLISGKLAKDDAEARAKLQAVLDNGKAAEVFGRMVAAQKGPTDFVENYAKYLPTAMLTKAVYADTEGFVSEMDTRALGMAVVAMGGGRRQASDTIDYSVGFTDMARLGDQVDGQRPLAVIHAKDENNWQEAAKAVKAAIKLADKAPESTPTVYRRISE
Chain of Thymidine phosphorylase (Escherichia coli K-12) (P07650 whole entry, looked up): as the sequence (P07650 whole entry) above

With `Nc1nccn1Cc1[nH]c(=O)[nH]c(=O)c1F`, the Ki (as a rule, a measure of affinity in units of concentration, obtained from inhibition or displacement) on Thymidine phosphorylase was 11 nM. The outcome in assay [1] was Active.

On to `O=c1[nH]c(Cn2ccnc2)c(F)c(=O)[nH]1`, for which the affinity at Thymidine phosphorylase, expressed as Ki, was 51 nM.

On Thymidine phosphorylase, `Nc1c(Br)c(=O)[nH]c(=O)n1CCCCCCCCP(=O)(O)O` displayed a Ki of 476000 nM.

In turn, `Cc1cn([C@@H]2O[C@H](CO)[C@H]3C[C@@H](CP(=O)(O)O)O[C@H]32)c(=O)[nH]c1=O` came in with a Ki at Thymidine phosphorylase of 1000 nM.

`N=C1CCCN1Cc1[nH]c(=O)[nH]c(=O)c1Cl`: the Ki at Thymidine phosphorylase turned out to be 35 nM.

The values above are taken from ChEMBL document CHEMBL1154959, “The role of phosphate in the action of thymidine phosphorylase inhibitors: Implications for the catalytic mechanism” (Bioorg Med Chem Lett, 2010).
